Laboratory results published in PubChem BioAssay AID1053144 (Broad Institute, 2014).

System: NPC TCF/LEF luciferase reporter, Wnt3a EC25, 24 h
Assay: Wnt/beta-catenin signaling activators, dose response, cell-based, iPS-derived NPC, luciferase, Wnt3a, cherry-pick (AID 1053144);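 also: Wnt3a stimulus is conditioned medium from Wnt3a-transfected mouse L cells at 5% in well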

O=C1c2ccccc2C(=O)C1c1ccc(O)cc1
AC30: 14.7 µM

Cc1oc(=O)c(NC(=O)c2cccc(Cl)c2)cc1C(=O)c1ccccc1
AC30: 7.11 µM

O=C(c1cc(-c2cccc(O)c2)on1)N1CCCCCC1
AC30: 4.78 µM

Cc1ccc2nc(-c3ccc(NS(=O)(=O)c4ccc(F)cc4)cc3)sc2c1
AC30: 4.78 µM

CCOC(=O)c1c(Nc2ccc(OC)cc2)n[nH]c1C
AC30: 11.4 µM

CC(=O)Nc1ccc2nc3ccccc3nc2c1
AC30: 15.3 µM

CCOCC(=O)Nc1nc2ccc(OCC)cc2s1
AC30: 11.8 µM

Cc1ccc(COc2ccc3c(c2)OCO3)cc1
AC30: 17 µM

CCc1ccccc1NC(=O)c1cccc(NC(=O)/C=C/c2ccco2)c1
AC30: 13.2 µM

COc1ccc(-c2ccc(SCC(=O)Nc3cc(C)on3)nn2)cc1OC
AC30: 15.1 µM

CC(C)c1ccc(NC(=O)c2ccccc2NC(=O)C2CCCCC2C(=O)O)cc1 (stereo unspecified)
AC30: 15.5 µM

CCOc1cc(/C=N/NC(=O)N/N=C/c2ccc(O)c(OCC)c2)ccc1O
AC30: 13.1 µM

Cc1ccccc1NC(=O)c1cc2ccccn2n1
AC30: 4.78 µM

COc1ccc2oc(C(=O)c3ccccc3)c(N)c2c1
AC30: 7.18 µM

CCCc1cc(C(=O)Nc2cccc(C(C)=O)c2)no1
AC30: 10.5 µM

O=C(NCCc1ccccc1)c1cc(-c2ccco2)on1
AC30: 10.7 µM

O=C(NCCc1c[nH]c2ccccc12)c1cc2ccccc2oc1=O
AC30: 13.4 µM

O=Nc1c(-c2c(O)[nH]c3cc(Br)ccc23)[nH]c2ccccc12
AC30: 0.942 µM

Fc1ccccc1-c1ccc(/C=N/Nc2nc3ccccc3[nH]2)o1
AC30: 17.3 µM

CC1CC1C(=O)OCc1cc(=O)n2cc(Br)ccc2n1 (stereo unspecified)
AC30: 9.48 µM

O=[N+]([O-])c1ccccc1-c1nc(-c2ccc(Br)o2)no1
AC30: 4.78 µM

CCNc1nc(N)c(C(=O)c2ccc(Cl)s2)s1
AC30: 11.3 µM

Cn1c(CCNC(=O)c2ccco2)nc2cc(NC(=O)c3ccco3)ccc21
AC30: 11.8 µM

O=C(NCC1CCCO1)c1cc(-c2ccc(F)cc2)no1 (stereo unspecified)
AC30: 15.9 µM

Cc1[nH]c2ccccc2c1/C=N/Nc1nc2ccccc2[nH]1
AC30: 5.61 µM

Cc1cccc(NC(=O)c2ccccn2)c1C
AC30: 11.4 µM

O=C(c1cc2ccccc2o1)c1cccs1
AC30: 8.58 µM

CCOc1ccc(-c2nnc(-c3ccccc3)n2-c2ccccc2)cc1
AC30: 12.4 µM

CCCC(=O)Nc1ccc(C(=O)COC(=O)C2CC2)cc1
AC30: 5.63 µM

Cc1cc(O)c(NC(=O)c2cccc([N+](=O)[O-])c2)cc1C
AC30: 11.2 µM

COc1ccc2sc(NC(=O)CC(C)C)nc2c1
AC30: 13.4 µM

O=C(Cc1nc2ccccc2[nH]1)c1ccc([N+](=O)[O-])cc1
AC30: 7.12 µM

O=c1oc2ccccc2cc1-c1nc2ccccc2o1
AC30: 8.58 µM

O=C(Nc1ncccc1O)c1ccc(Oc2ccccc2)cc1
AC30: 12.3 µM

COC(=O)CCc1sc(Nc2ccccc2)nc1-c1ccc(OC)cc1
AC30: 12.9 µM

CC1(C)CC(=O)C2=C(C1)c1c(ccc3ccccc13)NC2c1ccco1 (stereo unspecified)
AC30: 14.8 µM

COc1ccc(N=C(C)c2sc3ccccc3c2O)cc1
AC30: 4.78 µM

Cc1cccc(NC(=O)c2c(O)c3ccccc3[nH]c2=O)c1
AC30: 6.72 µM

CSc1ccc(C(=O)/C=C/c2ccc(N)cc2)cc1
AC30: 6.32 µM

O=C(Nc1ccc(Br)cn1)c1ccc(Br)s1
AC30: 4.78 µM

O=C(c1ccc(-c2ccc(Cl)cc2Cl)o1)N1CCOCC1
AC30: 8.53 µM

Cc1cccc(C(=O)OCC(=O)N2CCCCCC2)c1C
AC30: 12.1 µM

COc1ccccc1CNC(=O)COc1ccccc1C(=O)c1cnn(-c2ccccc2)c1
AC30: 10 µM

COc1ccc(N2COC3c4cccc5cccc(c45)C32)cc1 (stereo unspecified)
AC30: 17.8 µM

CCn1c(SCC(=O)c2ccc(Cl)cc2)nnc1C(C)C
AC30: 12.1 µM

O=C(Nc1ncccc1O)c1ccc2c(c1)OCO2
AC30: 7.75 µM

C(=C\c1nc(-c2cccnc2)no1)/c1ccccc1
AC30: 4.78 µM

O=C(/C=C/c1ccc(O)c(O)c1)c1ccccc1O
AC30: 8.06 µM

Cc1ccc2oc(-c3cccc(NC(=O)c4ccccn4)c3)nc2c1
AC30: 10.9 µM

O=C(O)c1ccc(/C=C(\c2nc3ccccc3[nH]2)c2nc3ccccc3s2)cc1
AC30: 15.8 µM

Nc1nc(-c2cc3ccccc3o2)cs1
AC30: 4.78 µM
